Here are results for 10 molecules from patent US20250114460A1, “NOVEL PLK1 DEGRADATION INDUCING COMPOUND” (UPPTHERA, INC., priority 2021, published 2025).

Molecules are shown by their SMILES.

Holding throughout (type): cell-based
The target of assay [1] is T1, PLK1 (Homo sapiens, UniProt P53350).
T1 construct: endogenous in cells; host or cells: HeLa LgBit (Plk1-HiBit KI): HeLa stably expressing LgBit, with a CRISPR/Cas9 knock-in of HiBit at the endogenous PLK1 locus
As to the kind of experiment: Luciferase assay for PLK1 in HeLa LgBit (Plk1-HiBit KI) cell line. The note with it: 300 nM compound, luminescence after 9 hours. The method in brief:
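HeLa cells stably expressing LgBit, with HiBit knocked in at the C-terminus of endogenous Plk1, released from a 24 h 2 mM thymidine block and grown 18 h. Endurazine added, then compound at 300 nM; luminescence tracked in real time, expressed as ratio to DMSO.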

The test system of assay [2] is NCI-H526 cell line. The experiment in a line: Cell viability assay for H526 cell (EZ-Cytox). Conditions: Homo sapiens, NCI-H526, 120 h; H526 cells, 5 days, 3000 nM to 0.46 nM. The gist of the method:
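NCI-H526 cells were exposed to compound in CO2 incubator culture for 5 days. Viability was read by EZ-Cytox absorbance at 450 nm after 3 min shaking, giving IC50 values.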

For assay [3], the system named is MRC-5 cell line. As to the kind of experiment: Cell viability assay for MRC-5 cell line (EZ-Cytox). Conditions: Homo sapiens, MRC5, 120 h; MRC-5 normal cell line, 5 days, 10000 nM to 1.52 nM; N.D. = no cytotoxicity until 10 μM; read-out: Activity: IC50 value of Exemplary Compound to MRC-5 cell line. How it is done: 4. Cell Viability Assay for MRC-5 Cell Line
(1) Culture of MRC-5 Cell Line
Passage of cultured cells was maintained within P15.
(2) Treatment of Compounds of the Present Invention
Then, it was cultured in 37° C.
(3) Cytotoxicity Experiment
CO2 incubator for 4 hours.

The term IC50 denotes the concentration that gives 50% inhibition.

T1 sequence (P53350 whole entry): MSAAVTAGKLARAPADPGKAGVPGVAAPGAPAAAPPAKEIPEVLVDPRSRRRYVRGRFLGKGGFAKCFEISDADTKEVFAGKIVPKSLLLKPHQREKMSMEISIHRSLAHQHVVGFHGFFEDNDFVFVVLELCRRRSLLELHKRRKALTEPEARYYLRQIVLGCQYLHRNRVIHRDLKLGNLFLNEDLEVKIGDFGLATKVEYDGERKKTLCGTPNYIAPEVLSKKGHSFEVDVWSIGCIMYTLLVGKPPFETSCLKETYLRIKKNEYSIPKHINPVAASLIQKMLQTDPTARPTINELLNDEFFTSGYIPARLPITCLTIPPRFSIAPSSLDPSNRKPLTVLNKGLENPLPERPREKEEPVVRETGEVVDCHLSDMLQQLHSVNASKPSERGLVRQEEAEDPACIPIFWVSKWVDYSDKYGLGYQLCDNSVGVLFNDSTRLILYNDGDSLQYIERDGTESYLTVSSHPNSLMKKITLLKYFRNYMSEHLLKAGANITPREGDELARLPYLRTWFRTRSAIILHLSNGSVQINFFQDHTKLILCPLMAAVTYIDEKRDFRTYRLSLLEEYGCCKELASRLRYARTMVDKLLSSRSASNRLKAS

Consider `COc1cc(C(=O)NC2CCN(C(=O)CC3CCN(c4cccc5c4C(=O)N(C4CCC(=O)NC4=O)C5=O)C3)CC2)c(F)cc1Nc1ncc2c(n1)N(C1CCCC1)CC(F)(F)C(=O)N2C` (stereo not drawn) [Compound 44, 4-((9-cyclopentyl-7,7-difluoro-5-methyl-6-oxo-6,7,8,9-tetrahydro-5H-pyrimido[4,5-b][1,4]diazepin-2-yl)amino)-N-(1-(2-(1-(2-(2,6-dioxopiperidin-3-yl)-1,3-dioxoisoindolin-4-yl)pyrrolidin-3-yl)acetyl)piperidin-4-yl)-2-fluoro-5-methoxybenzamide], for which, in assay [1], the “Activity: ratio of the luminescense value of each Exemplary Compound treatment group to DMSO treatment group” value (“Activity: ratio” for short) is reported as “++ (++<0.6)”. Besides, the IC50 in assay [2] is below 100 nM; in assay [3], above 10 µM.
In the case of `COc1cc(C(=O)NC2CCN(C(=O)COC3CCN(c4cccc5c4C(=O)N(C4CCC(=O)NC4=O)C5=O)CC3)CC2)ccc1Nc1ncc2c(n1)N(C1CCCC1)CC(F)(F)C(=O)N2C` (stereo not drawn) [Compound 79, 4-((9-cyclopentyl-7,7-difluoro-5-methyl-6-oxo-6,7,8,9-tetrahydro-5H-pyrimido[4,5-b][1,4]diazepin-2-yl)amino)-N-(1-(2-((1-(2-(2,6-dioxopiperidin-3-yl)-1,3-dioxoisoindolin-4-yl)piperidin-4-yl)oxy)acetyl)piperidin-4-yl)-3-methoxybenzamide], the “Activity: ratio” value in assay [1] is “+++ (+++: <0.3)”. For the same molecule, the IC50 in assay [2] was below 100 nM; in assay [3], above 10 µM.
On the same counts, the results for `COc1cc(C(=O)N[C@H]2CC[C@H](N3CCN(CCOCCNc4cccc5c4C(=O)N(C4CCC(=O)NC4=O)C5=O)CC3)CC2)ccc1Nc1ncc2c(n1)N(C1CCCC1)CC(F)(F)C(=O)N2C` (stereo partly drawn) [Compound 194, 4-((9-cyclopentyl-7,7-difluoro-5-methyl-6-oxo-6,7,8,9-tetrahydro-5H-pyrimido[4,5-b][1,4]diazepin-2-yl)amino)-N-((1r,4r)-4-(4-(2-(2-((2-(2,6-dioxopiperidin-3-yl)-1,3-dioxoisoindolin-4-yl)amino)ethoxy)ethyl)piperazin-1-yl)cyclohexyl)-3-methoxybenzamide] are “++ (++<0.6)”, below 50 nM and above 10 µM.
For `COc1cc(C(=O)NC2CC(N(C)CCC3CCN(c4cccc5c4C(=O)N(C4CCC(=O)NC4=O)C5=O)CC3)C2)ccc1Nc1ncc2c(n1)N(C1CCCC1)CC(F)(F)C(=O)N2C` (stereo not drawn) [Compound 107, 4-((9-cyclopentyl-7,7-difluoro-5-methyl-6-oxo-6,7,8,9-tetrahydro-5H-pyrimido[4,5-b][1,4]diazepin-2-yl)amino)-N-(3-((2-(1-(2-(2,6-dioxopiperidin-3-yl)-1,3-dioxoisoindolin-4-yl)piperidin-4-yl)ethyl)(methyl)amino)cyclobutyl)-3-methoxybenzamide], in that order: “++ (++<0.6)”, below 100 nM and above 10 µM.
For `COc1cc(C(=O)NC2CCN(C(=O)CCN3CCN(c4cccc5c4CN(C4CCC(=O)NC4=O)C5=O)CC3)CC2)ccc1Nc1ncc2c(n1)N(C1CCCC1)CC(F)(F)C(=O)N2C` (stereo not drawn) [Compound 81, 4-((9-cyclopentyl-7,7-difluoro-5-methyl-6-oxo-6,7,8,9-tetrahydro-5H-pyrimido[4,5-b][1,4]diazepin-2-yl)amino)-N-(1-(3-(4-(2-(2,6-dioxopiperidin-3-yl)-1-oxoisoindolin-4-yl)piperazin-1-yl)propanoyl)piperidin-4-yl)-3-methoxybenzamide], the “Activity: ratio” value in assay [1] is on record as “++ (++<0.6)”. Moreover, the IC50 in assay [2] is below 50 nM; in assay [3] it was above 10 µM.
On the same counts, the results for `COc1cc(C(=O)NC2CC3(CCN(CC4CCN(c5cccc6c5C(=O)N(C5CCC(=O)NC5=O)C6=O)CC4)CC3)C2)ccc1Nc1ncc2c(n1)N(C1CCCC1)CC(F)(F)C(=O)N2C` (stereo not drawn) [Compound 136, 4-((9-cyclopentyl-7,7-difluoro-5-methyl-6-oxo-6,7,8,9-tetrahydro-5H-pyrimido[4,5-b][1,4]diazepin-2-yl)amino)-N-(7-((1-(2-(2,6-dioxopiperidin-3-yl)-1,3-dioxoisoindolin-4-yl)piperidin-4-yl)methyl)-7-azaspiro[3.5]nonan-2-yl)-3-methoxybenzamide] are “+++ (+++: <0.3)”, below 30 nM and 6.52 µM.
On the same counts, the results for `COc1cc(C(=O)NC2CCN(C3CC4(CCN(c5cccc6c5C(=O)N(C5CCC(=O)NC5=O)C6=O)CC4)C3)CC2)c(F)cc1Nc1ncc2c(n1)N(C1CCCC1)CC(F)(F)C(=O)N2C` (stereo not drawn) [Compound 208, 4-((9-cyclopentyl-7,7-difluoro-5-methyl-6-oxo-6,7,8,9-tetrahydro-5H-pyrimido[4,5-b][1,4]diazepin-2-yl)amino)-N-(1-(7-(2-(2,6-dioxopiperidin-3-yl)-1,3-dioxoisoindolin-4-yl)-7-azaspiro[3.5]nonan-2-yl)piperidin-4-yl)-2-fluoro-5-methoxybenzamide] are “++ (++<0.6)”, below 100 nM and above 10 µM.
Consider `COc1cc(C(=O)N[C@H]2CC[C@H](N(C)CC3CCN(c4ccc5c(c4)C(=O)N(C4CCC(=O)NC4=O)C5=O)CC3)CC2)ccc1Nc1ncc2c(n1)N(C(C)C)CC(F)(F)C(=O)N2C` (stereo partly drawn) [Compound 153, 4-((7,7-difluoro-9-isopropyl-5-methyl-6-oxo-6,7,8,9-tetrahydro-5H-pyrimido[4,5-b][1,4]diazepin-2-yl)amino)-N-((1r,4r)-4-(((1-(2-(2,6-dioxopiperidin-3-yl)-1,3-dioxoisoindolin-5-yl)piperidin-4-yl)methyl)(methyl)amino)cyclohexyl)-3-methoxybenzamide], for which, in assay [1], the “Activity: ratio” value is given as “++ (++<0.6)”. Also, the IC50 in assay [2] is below 50 nM; in assay [3], 15.8 µM.
On the same counts, the results for `COc1cc(C(=O)NC2CCN(C(=O)COc3cccc4c3C(=O)N(C3CCC(=O)NC3=O)C4=O)CC2)ccc1Nc1ncc2c(n1)N(C1CCCC1)CC(F)(F)C(=O)N2C` (stereo not drawn) [Compound 38, 4-((9-cyclopentyl-7,7-difluoro-5-methyl-6-oxo-6,7,8,9-tetrahydro-5H-pyrimido[4,5-b][1,4]diazepin-2-yl)amino)-N-(1-(2-((2-(2,6-dioxopiperidin-3-yl)-1,3-dioxoisoindolin-4-yl)oxy)acetyl)piperidin-4-yl)-3-methoxybenzamide] are “++ (++<0.6)”, below 200 nM and above 10 µM.
On the same counts, the results for `COc1cc(C(=O)N[C@H]2CC[C@H](N(C)CCN3CCN(c4ccc5c(c4)C(=O)N(C4CCC(=O)NC4=O)C5=O)CC3)CC2)ccc1Nc1ncc2c(n1)N(C(C)C)CC(F)(F)C(=O)N2C` (stereo partly drawn) [Compound 156, 4-((7,7-difluoro-9-isopropyl-5-methyl-6-oxo-6,7,8,9-tetrahydro-5H-pyrimido[4,5-b][1,4]diazepin-2-yl)amino)-N-((1r,4r)-4-((2-(4-(2-(2,6-dioxopiperidin-3-yl)-1,3-dioxoisoindolin-5-yl)piperazin-1-yl)ethyl)(methyl)amino)cyclohexyl)-3-methoxybenzamide] are “++ (++<0.6)”, below 50 nM and above 10 µM.
